Literature values as cited in patent publication US20150141336A1, “Pancreatic Peptide Compounds and Use” (Novo Nordisk A/S, priority 2012, published 2015).

Settings: minipig, in vivo; cited from earlier work

CC[C@H](C)[C@H](NC(=O)[C@H](Cc1ccc(O)cc1)NC(=O)[C@H](CCCNC(=N)N)NC(=O)[C@H](CCCNC(=N)N)NC(=O)[C@H](CC(C)C)NC(=O)[C@H](CC(=O)O)NC(=O)[C@H](C)NC(=O)[C@H](C)NC(=O)[C@H](Cc1ccc(O)cc1)NC(=O)[C@H](CCC(N)=O)NC(=O)[C@H](C)NC(=O)[C@H](CCSC)NC(=O)[C@H](CCC(N)=O)NC(=O)[C@H](CCC(=O)O)NC(=O)[C@@H]1CCCN1C(=O)[C@@H](NC(=O)[C@H](C)NC(=O)[C@H](CC(N)=O)NC(=O)[C@H](CC(=O)O)NC(=O)CNC(=O)[C@@H]1CCCN1C(=O)[C@H](Cc1ccc(O)cc1)NC(=O)[C@@H](NC(=O)[C@@H]1CCCN1C(=O)[C@H](CCC(=O)O)NC(=O)[C@H](CC(C)C)NC(=O)[C@@H]1CCCN1C(=O)[C@H](C)N)C(C)C)[C@@H](C)O)C(=O)N[C@@H](CC(N)=O)C(=O)N[C@@H](CCSC)C(=O)N[C@@H](CC(C)C)C(=O)N[C@H](C(=O)N[C@@H](CCCNC(=N)N)C(=O)N1CCC[C@H]1C(=O)N[C@@H](CCCNC(=N)N)C(=O)N[C@@H](Cc1ccc(O)cc1)C(N)=O)[C@@H](C)O [PP(3-36)]
half-life: less than 30 minutes
